Patent US9139615B2, “High-affinity, dimeric inhibitors of PSD-95 as efficient neuroprotectants against ischemic brain damage and for treatment of pain” (University of Copenhagen, priority 2011, dated 2015)
“Also recorded” adds a separate entry of the source. Like-named read-outs stand apart in the source and are kept apart here.

How the values were obtained:
[1] = Spinal cord detection of fluorescent PSD-95 inhibitors; format: in vivo, mice; settings: mouse, in vivo
Protocol: To investigate if AB143 and AB145 are able to enter spinal cord tissue, they were administered to the mice by intraperitoneal injection (30 mg/kg). The drug-treated mice were decapitated 30 min after injection, and the spinal cord was carefully dissected out, to which 5% trichloroacetic acid (TCA) (300 μL per 0.1 g tissue) was added and the tissue homogenized with an ultrasonic homogenizer (on ice). The homogenated tissue was vortexed and centrifuged for 10 min (20000 g at 4° C.). The supernatant was transferred to a test tube and evaporated, and the residue was reconstituted in water and its fluoresence intensity was determined by using a fluorescence plate reader (excitation/emission:470/525 nm). For quantification of the compounds, a standard curve was prepared by spiking a known amount of AB143 and AB145 into spinal cord tissue from control mice prior to homogenization, followed by work-up and analysis similar to the drug-treated mice.

[2] = target: T1, PDZ1-2 of PSD-95 (Homo sapiens, UniProt P78352); test: Fluorescence polarization (FP) assay, affinity for PDZ1-2 of PSD-95; format: binding; settings: for Ki: probe AB143 0.5 nM, PDZ1-2 […], IC50 converted to Ki
T1 construct: made in house; host or cells: E. coli BL21-DE3 pLysS
T1 sequence (P78352 with tags, fused parts or gaps): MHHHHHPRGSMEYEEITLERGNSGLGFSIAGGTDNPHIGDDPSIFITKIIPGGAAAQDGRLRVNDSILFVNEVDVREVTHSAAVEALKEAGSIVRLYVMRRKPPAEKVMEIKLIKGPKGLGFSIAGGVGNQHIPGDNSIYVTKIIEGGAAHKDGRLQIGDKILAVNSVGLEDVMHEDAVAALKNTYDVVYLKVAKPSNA
Excerpt: VI.i. Fluorescence Polarization (FP) Assay: as described below, Example 1 provides a convenient and reliable way to monitor and evaluate the inhibitor properties of a PSD-95 inhibitor of the invention. The FP assay allows a wide range of peptide analogues to be tested and compared with respect to their interaction with PDZ domains, and their specificity with respect to the tandem PDZ1-2 of PSD-95. PDZ1-2 is expressed using standard recombinant DNA technology known to those skilled in the art.
More specifically, the assay is based on a heterologous competition binding assay, where the affinity measured as IC50 of a given (non-fluorescent) peptide analogue for a PDZ domain is measured in the presence of a fixed concentration of a fluorescent labeled dimeric ligand (AB143; FIG. 4). Determined IC50 values are converted to Ki values (Nikolovska-Coleska et al, Anal. Biochem. 2004, 332, p. 261-273). The 5-FAM fluorophore may be attached to the dimeric ligand by coupling with HATU or HBTU.
The cDNA coding for PSD-95 PDZ1-2 tandem (corresponding to residues 61-249 in the human full-length PSD95α without exon 4b) were amplified by inverted PCR and cloned in a modified His-tagged pRSET vector (Invitrogen, Carlsbad, Calif., USA). The encoded PDZ1-2 peptide further comprised the sequence, […] (SEQ ID NO: 14), which was used as a tag for purification (His-tag), and the DNA coding sequences and encoded proteins are designated as follows: HIS-PDZ1-2 DNA [SEQ ID NO: 1] encoding HIS-PDZ1-2 protein [SEQ ID NO: 2]. Competent E. coli bacteria (BL21-DE3, pLysS) were transformed with PDZ1-2 expressing construct and grown overnight on agar plates containing ampicillin (100 μg/mL) and chloramphenicol (35 μg/mL) at 37° C. Colonies were picked and used to inoculate bacterial cultures (LB medium with 50 μg/mL ampicillin). These were shaken while being incubated at 37° C. until A600 of the culture reached 0.45, at which point 1 mM isopropyl β-D-1-thiogalactopyranoside was added. Induced cultures were incubated over night at 30° C. (PDZ1-2). Cells were harvested by spinning at 10,000 g for 10 min at 4° C. and re-suspended in lysis buffer (50 mM Tris/HCL pH 7.5, 1 mM PMSF, 25 μg/ml DNAse, 40 mM Mg2SO4). The cells were destroyed using a cell disruptor apparatus at 26 KPsi. The cell lysate was spun down at 35,000 g for 1 hour and the supernatant filtered with a 0.45 μm and a 0.22 μm filter. Purification of expressed PDZ1-2 peptide was performed with first a nickel (II)-charged column (HisTrap™ HP, GE Healthcare, UK) equilibrated with Tris-buffer (Tris/HCl buffer 50 mM, pH 7.5) followed by gel-filtration. For gel-filtration the PDZ1-2 sample was loaded on a Superdex™ 75 HR 10/30 column (GE Healthcare, UK) equilibrated with Tris buffer (20 mM Tris/HCL, pH 7.5) with a constant flow rate at 0.5 mL/min. The relevant fractions were analyzed on a SDS-PAGE gel stained by a standard silver staining protocol. The final purification was analyzed by electrospray ionization liquid chromatography-mass spectrometry (ESI-LC/MS) to get the exact molecular weight and thereby verify the identity of the PDZ1-2 domain. Molar extinction coefficients were found by amino acids analysis (Alphalyse, Odense, Denmark) and thereafter used for measuring protein concentrations. […]
An in vitro affinity measurement assay was developed based on the fluorescence polarization principle in order to provide affinity constants (Ki values) between synthesized ligands (e.g. dimeric inhibitors) and PDZ1-2 of PSD-95. […]

[3] = system: CFA-induced mechanical allodynia/hyperalgesia; test: Complete Freund's adjuvant (CFA) inflammatory pain, von Frey test; format: in vivo, mice

CC[C@H](C)[C@H](NC(=O)CCOCCOCCOCCOCCOCCOCCOCCC(=O)N[C@H](C(=O)N[C@@H](CCC(=O)O)C(=O)N[C@@H](CO)C(=O)N[C@@H](CC(=O)O)C(=O)N[C@H](C(=O)O)C(C)C)[C@@H](C)CC)C(=O)N[C@@H](CCC(=O)O)C(=O)N[C@@H](CO)C(=O)N[C@@H](CC(=O)O)C(=O)N[C@H](C(=O)O)C(C)C [AB122, PEG6(IESDV)2]
ability to enter spinal cord tissue (concluded from fluorescent surrogates) [1]: able to reach their target, PSD-95, in the spinal cord

CC[C@H](C)[C@H](NC(=O)CCOCCOCCOCCOCCOCCC(=O)N[C@H](C(=O)N[C@@H](CCC(=O)O)C(=O)N[C@@H](CO)C(=O)N[C@@H](CC(=O)O)C(=O)N[C@H](C(=O)O)C(C)C)[C@@H](C)CC)C(=O)N[C@@H](CCC(=O)O)C(=O)N[C@@H](CO)C(=O)N[C@@H](CC(=O)O)C(=O)N[C@H](C(=O)O)C(C)C [AB123, PEG4(IESDV)2]
ability to enter spinal cord tissue (concluded from fluorescent surrogates) [1]: able to reach their target, PSD-95, in the spinal cord

CC[C@H](C)[C@H](NC(=O)CCOCCOCCOCCOCCOCCC(=O)N[C@H](C(=O)N[C@@H](CCC(=O)O)C(=O)N[C@H](C(=O)N[C@@H](C)C(=O)N[C@H](C(=O)O)C(C)C)[C@@H](C)O)[C@@H](C)CC)C(=O)N[C@@H](CCC(=O)O)C(=O)N[C@H](C(=O)N[C@@H](C)C(=O)N[C@H](C(=O)O)C(C)C)[C@@H](C)O [AB125, PEG4(IETAV)2]
Ki ([2]; heterologous competition, TBS pH 7.4, read-out: Ki ± SEM, affinity towards PDZ1-2 of PSD-95): ~9.5 nM
CFA-induced hyperalgesia ([3]; 1, 3 and 10 mg/kg given 24 hours after CFA-injection, at 72 hours): significantly reversed
CFA-induced pain response (paw withdrawal threshold) ([3]; 3, 10 and 30 mg/kg i.p. simultaneously with CFA, 24 hours afterwards): reduces CFA-induced pain response; also recorded: differed significantly from saline-treated mice
CFA-induced hyperalgesia ([3]; 3 and 10 mg/kg given 24 hours after CFA-injection, after 1 hour): significant reversal of the CFA-induced hyperalgesia
CFA-induced hyperalgesia ([3]; 3 and 10 mg/kg given 24 hours after CFA-injection, after 24 hours): significant reversal was still observed
CFA-induced hyperalgesia ([3]; 3 and 10 mg/kg, given simultaneously with CFA, after 1 hour): significantly reversed the CFA-induced hyperalgesia
CFA-induced hyperalgesia ([3]; 3 and 10 mg/kg, given simultaneously with CFA, after 24 hours): significant reversal was still observed
duration of reversal of CFA-induced hyperalgesia ([3]; administered 24 hours after CFA treatment): at least 3 days
CFA-induced mechanical hyperalgesia ([3]; administered concurrently with CFA, 1 hour and 24 hours after treatment): prevented the development of CFA-induced mechanical hyperalgesia

CC[C@H](C)[C@H](NC(=O)CCOCCOCCNCCOCCOCCC(=O)N[C@H](C(=O)N[C@@H](CCC(=O)O)C(=O)N[C@H](C(=O)N[C@@H](C)C(=O)N[C@H](C(=O)O)C(C)C)[C@@H](C)O)[C@@H](C)CC)C(=O)N[C@@H](CCC(=O)O)C(=O)N[C@H](C(=O)N[C@@H](C)C(=O)N[C@H](C(=O)O)C(C)C)[C@@H](C)O [AB141, NPEG4(IETAV)2]
ability to enter spinal cord tissue (concluded from fluorescent surrogates) [1]: able to reach their target, PSD-95, in the spinal cord

CC[C@H](C)[C@H](NC(=O)CCOCCOCCN(CCOCCOCCC(=O)N[C@H](C(=O)N[C@@H](CCC(=O)O)C(=O)N[C@H](C(=O)N[C@@H](C)C(=O)N[C@H](C(=O)O)C(C)C)[C@@H](C)O)[C@@H](C)CC)C(=O)c1ccc2c(c1)C(=O)OC21c2ccc(O)cc2Oc2cc(O)ccc21)C(=O)N[C@@H](CCC(=O)O)C(=O)N[C@H](C(=O)N[C@@H](C)C(=O)N[C@H](C(=O)O)C(C)C)[C@@H](C)O [AB143, F-NPEG4(IETAV)2]
Kd ([2]; saturation binding, probe 0.5 nM, TBS pH 7.4, read-out: Kd towards PDZ1-2 of PSD-95): 7.8 ± 0.11 nM
fluorescence in spinal cord tissue compared to saline-treated mice [1]: clear and distinct fluorescence increase

CC(C)[C@H](NC(=O)[C@H](CC(=O)O)NC(=O)[C@@H](NC(=O)[C@H](CCC(=O)O)NC(=O)[C@H](CCCCNC(=O)[C@H](CCCNC(=N)N)NC(=O)[C@H](CCCNC(=N)N)NC(=O)[C@H](CCCNC(=N)N)NC(=O)[C@H](CCC(N)=O)NC(=O)[C@H](CCCNC(=N)N)NC(=O)[C@H](CCCNC(=N)N)NC(=O)[C@H](CCCCN)NC(=O)[C@H](CCCCN)NC(=O)[C@H](CCCNC(=N)N)NC(=O)CNC(=O)[C@@H](N)Cc1ccc(O)cc1)NC(=O)CCOCCOCCOCCOCCOCCC(=O)N[C@@H](CCCCNC(=O)[C@H](CCCNC(=N)N)NC(=O)[C@H](CCCNC(=N)N)NC(=O)[C@H](CCCNC(=N)N)NC(=O)[C@H](CCC(N)=O)NC(=O)[C@H](CCCNC(=N)N)NC(=O)[C@H](CCCNC(=N)N)NC(=O)[C@H](CCCCN)NC(=O)[C@H](CCCCN)NC(=O)[C@H](CCCNC(=N)N)NC(=O)CNC(=O)[C@@H](N)Cc1ccc(O)cc1)C(=O)N[C@@H](CCC(=O)O)C(=O)N[C@H](C(=O)N[C@@H](CC(=O)O)C(=O)N[C@H](C(=O)O)C(C)C)[C@@H](C)O)[C@@H](C)O)C(=O)O [AB144_H]
Ki ([2]; Ki ± SEM, affinity towards PDZ1-2 of PSD-95, heterologous competition, TBS pH 7.4): 24 ± 2 nM
fold lower affinity than AB144 ([2]; PDZ1-2 of PSD-95, from Ki): ~5 fold
